Values quoted from earlier work in patent publication US10881700B1, “Compositions including extracts of gray mangrove leaves and methods of treatment using such compositions in treatment of viral infections” (KING ABDULLAH UNIVERSITY OF SCIENCE AND TECHNOLOGY, priority 2016, dated 2021).

Experiments:
HIV-1 integrase = HIV-1 integrase (Human immunodeficiency virus type 1 group M subtype B, UniProt P04585); conditions: reference [24]
HIV-1 reactivation = conditions: reference [26]

COC(=O)C=Cc1ccccc1 [Methyl cinnamate]
activity against HIV-1 integrase (HIV-1 integrase): not demonstrated activity

COc1ccccc1O [gluaiacol, 2-Methoxy phenol]
blocking HIV-1 reactivation in cases of virus latency (HIV-1 reactivation): efficient in blocking HIV-1 reactivation
